Columns and labels:
CD19+CD38+CD27+ ASCs = experiment: Survival and apoptosis of differentiated antibody-secreting cells (ASCs) from PBMC, Annexin V/7-AAD; format: cell-based, human; conditions: added for 12 hours on Day 5
Experimental: (§1) The immunoproteasome plays important roles in T cell differentiation and proliferation and dendritic cell activation and maturation[14],[20],[24]. However, its role in B cell differentiation is not well understood. […] Differentiated ASCs were then exposed to PKS21221 at indicated concentrations and cell survival was determined with Annexin V and 7-aminoactinomycin D (7-AAD) at three-time points (12-h, 24-h, and 48-h after treatment). […] In addition, the cytotoxicity of PKS21221 to different cell populations in PBMC was examined and compared to the cytotoxicity of bortezomib. PBMCs were incubated with PKS21221 or bortezomib, and the viability was assessed in T cells (CD3^+), B cells (CD19^+), monocytes (CD14^+) and dendritic cells (CD3^−CD19^−CD14^−CD16^−CD11c^+HLA-DR^+), respectively (Supplementary Fig. 13b–e).
PBMCs were cultured with or without IL-2/R848 for 5 days, followed by 12-h incubation with PKS21221 at different concentrations. a Representative flow cytometry plots of cells treated with IL-2 and R848 in the presence and absence of PKS21221. […] Annexin V^+7-AAD^− cells were referred as “Early apoptosis” population, and Annexin V^+7-AAD^+ cells were referred as “Dead” population. d Percentage of early apoptotic ASCs (left) and dead ASCs (right), after 12-h incubation with PKS21221.
Human peripheral blood samples were obtained from five different healthy volunteers (BWH Specimen Bank). Peripheral blood mononuclear cells (PBMCs) were isolated by density gradient centrifugation using Lymphoprep (StemCell Technologies). PBMCs were cultured at 1.5 × 10^6 cells per mL in RPMI 1640 media (Lonza), supplemented with 10% human serum (GemCell) (10% HS-RPMI), recombinant human IL-2 10 ng per mL (or 100 U per ml, BioLegend) and R848 1 µg per mL (Cayman Chemicals) for 5 days, at 37 °C, 5% CO2. PKS21221 in DMSO, or DMSO only for control, was added to the culture media on day 5, and cells were incubated for additional 12, 24, and 48 h.

[1] = test system: resting CD3+ T cells and CD19+ B cells; experiment: Viability assay of human PBMC populations (Fixable Viability dye); format: cell-based; conditions: 10 nM bortezomib vs 1 μM PKS21221
Experimental: as §1
(1 picture or pasted object on this page, not shown here)

T cells = experiment: In vitro T-cell proliferation, anti-CD3/anti-CD28; format: cell-based, human; conditions: anti-CD3 and anti-CD28 stimulation
Text: (§2) As we observed selective cytotoxicity of PKS21221 in activated B cells and ASCs compared to non-activated B cells, we asked whether this is the case in proliferating T cells. We activated human T cells to proliferate with anti-CD3 and anti-CD28 in the presence or absence of PKS21221 or bortezomib. […] To examine whether these inhibitors are cytotoxic preferentially to proliferating cells, we triggered T-cell proliferation with anti-CD3/anti-CD28 for 4 days (in the absence of inhibitors), treated the cells with PKS21221 for the next 24 h and determined cell survival with Annexin V and 7-AAD (Fig. 6c, d).
(§3) Fig. 6 Effect of PKS21221 and bortezomib (BTZ) on T-cell proliferation. T cells were isolated from human PBMC and stimulated with anti-CD3 (1 µg per ml) and anti-CD28 (1 µg per ml) for 4 days. […] Apoptosis c and viability d were assessed in proliferating and non-proliferating population of T cells. […]
(§4) T cells were isolated from human PBMCs using Human T-cell Isolation kit (StemCell Technologies, Cat#17951). […] Cells were counted and loaded with 5 μM CellTrace Violet (Thermo Fisher) in phosphate buffered saline (PBS) for 10 min at 37 °C, followed by wash in 10% fetal calf serum (FCS)-supplemented RPMI 1640 media. […] The viability and apoptosis were assessed using Annexin V Apoptosis Detection Kit (BD Biosciences). […]

proliferating T cells = experiment: Apoptosis and viability of proliferating vs non-proliferating T cells; format: cell-based, human; conditions: 4 days anti-CD3/anti-CD28, then 24 h; PKS21221 1 µM, BTZ 10 nM
Text: as §2, §3, §4

## CC(C)C[C@H](NC(=O)[C@H](Cc1ccccc1)NC(=O)c1cnccn1)B(O)O [Bortezomib, bortezomib, reference compound]
CD19+CD38+CD27+ ASCs
  ASC percentage in ASC differentiating culture: decreased the percentage of
[1]
  cytotoxicity to resting CD3+ T cells and CD19+ B cells: more cytotoxic at 10 nM than PKS2122 at 1 µM
T cells
  proliferation of T cells: inhibited proliferation of T cells in a dose-dependent manner
Proliferating T cells
  apoptosis and cell death, proliferating vs non-proliferating T cells: induced apoptosis and cell death to a greater extent in proliferating T cells than in non-proliferating T cells
